Measured values taken from patent publication US20180110754A1, “CENICRIVIROC FOR THE TREATMENT OF FIBROSIS” (Tobira Therapeutics, Inc., priority 2015, published 2018).

Assays:
[1] = system: MCP-1, sCD14, hs-CRP, IL-6, D-dimer, fibrinogen; experiment: Study 202: biomarkers of inflammation and immune function; type: in vivo, human; details: EFV 600 mg
Description: As an exploratory analysis, levels of inflammation biomarkers MCP-1, sCD14, high sensitivity C-reactive protein [hs-CRP], interleukin-6 [IL-6], D-dimer, and fibrinogen) were measured. Baseline values and changes from baseline at Week 24 and Week 48 of MCP-1, sCD14, hs-CRP, IL-6, D-dimer, and fibrinogen are summarized in Table 25.
The sCD14 samples were originally analyzed in 2 separate batches: Batch 1 included samples leading up to the Week 24 primary analysis and Batch 2 included Week 32 and Week 48 (end of study) samples. A repeat analysis of archived samples all analyzed in one batch was conducted for consistency in analysis across time points. To control for the effects of covariates, a linear mixed-model repeated-measures analysis was conducted on the changes from baseline in sCD14 (analysis dated September 2013).

[2] = Study 202: treatment-emergent laboratory abnormalities (DAIDS grades; CPK, ALT, AST, bilirubin); type: in vivo; details: All CVC (N = 115), EFV (N = 28)
From the text: The number of subjects with graded treatment-emergent laboratory abnormalities in selected liver parameters of interest is shown in Table 34. No Grade 4 ALT or AST elevations were observed. Except for one Grade 3 AST elevation, all ALT and AST elevations were Grade 1 or Grade 2. […] All abnormalities in bilirubin were Grade 1 or Grade 2. […]

## O=C1Nc2ccc(Cl)cc2[C@@](C#CC2CC2)(C(F)(F)F)O1 [EFV, efavirenz, reference compound]
[1]
  D-dimer baseline value, mean: 163 ng/mL
  D-dimer baseline value, median: 150 ng/mL
  D-dimer change from baseline at Week 24, mean: -53 ng/mL
  D-dimer change from baseline at Week 24, median: -26 ng/mL
  D-dimer change from baseline at Week 48, mean: -34 ng/mL
  D-dimer change from baseline at Week 48, median: 0.0 ng/mL
  Fibrinogen baseline value, mean: 258 mg/dL
  Fibrinogen baseline value, median: 245 mg/dL
  Fibrinogen change from baseline at Week 24, mean: -28 mg/dL
  Fibrinogen change from baseline at Week 24, median: -31 mg/dL
  Fibrinogen change from baseline at Week 48, mean: -30 mg/dL
  Fibrinogen change from baseline at Week 48, median: -22 mg/dL
  IL-6 baseline value, mean: 13.81 pg/mL
  IL-6 baseline value, median: 1.90 pg/mL
  IL-6 change from baseline at Week 24, mean: -8.72 pg/mL
  IL-6 change from baseline at Week 24, median: 0.00 pg/mL
  IL-6 change from baseline at Week 48, mean: -13.11 pg/mL
  IL-6 change from baseline at Week 48, median: 0.00 pg/mL
  MCP-1 baseline value, mean: 139 pg/mL
  MCP-1 baseline value, median: 122 pg/mL
  MCP-1 change from baseline at Week 24, mean: -44 pg/mL
  MCP-1 change from baseline at Week 24, median: -17 pg/mL
  MCP-1 change from baseline at Week 48, mean: 4.2 pg/mL
  MCP-1 change from baseline at Week 48, median: 33.6 pg/mL
  hs-CRP baseline value, mean: 0.81 mg/dL
  hs-CRP baseline value, median: 0.14 mg/dL
  hs-CRP change from baseline at Week 24, mean: -0.46 mg/dL
  hs-CRP change from baseline at Week 24, median: -0.01 mg/dL
  hs-CRP change from baseline at Week 48, mean: -0.71 mg/dL
  hs-CRP change from baseline at Week 48, median: -0.03 mg/dL
  sCD14 (original values) baseline value, mean: 2e+06 pg/mL
  sCD14 (original values) baseline value, median: 2.02e+06 pg/mL
  sCD14 (original values) change from baseline at Week 12, mean: 90000 pg/mL
  sCD14 (original values) change from baseline at Week 12, median: 180000 pg/mL
  sCD14 (original values) change from baseline at Week 24, mean: 230000 pg/mL
  sCD14 (original values) change from baseline at Week 24, median: 130000 pg/mL
  sCD14 (original values) change from baseline at Week 32, mean: 480000 pg/mL
  sCD14 (original values) change from baseline at Week 32, median: 170000 pg/mL
  sCD14 (original values) change from baseline at Week 48, mean: 640000 pg/mL
  sCD14 (original values) change from baseline at Week 48, median: 460000 pg/mL
[2]
  Any graded (Grade 1-4) treatment-emergent laboratory abnormality, n subjects: 25
  Laboratory abnormality, worst Grade 1, n subjects: 13
  Laboratory abnormality, worst Grade 2, n subjects: 8
  Laboratory abnormality, worst Grade 3 (Any Grade 3 abnormality), n subjects: 3
  Laboratory abnormality, worst Grade 4 (Any Grade 4 abnormality), n subjects: 1
[2]; through Week 48
  ALT, worst Grade 1, n subjects: 2
  ALT, worst Grade 2, n subjects: 0
  ALT, worst Grade 3, n subjects: 0
  ALT, worst Grade 4, n subjects: 0
  AST, worst Grade 1, n subjects: 3
  AST, worst Grade 2, n subjects: 0
  AST, worst Grade 3, n subjects: 0
  AST, worst Grade 4, n subjects: 0
  Alanine aminotransferase (ALT) abnormality, any grade, n subjects: 2
  Any Grade 3 or Grade 4 laboratory abnormality, n subjects: 4
  Aspartate aminotransferase (AST) abnormality, any grade, n subjects: 3
  Aspartate aminotransferase (AST) increased (Grade 3 or 4), n subjects: 0
  Bilirubin abnormality, any grade, n subjects: 1
  Bilirubin, worst Grade 1, n subjects: 1
  Bilirubin, worst Grade 2, n subjects: 0
  Bilirubin, worst Grade 3, n subjects: 0
  Bilirubin, worst Grade 4, n subjects: 0
  CPK increased, worst Grade 3, n subjects: 2
  CPK increased, worst Grade 4, n subjects: 0
  Creatine phosphokinase (CPK) increased (Grade 3 or 4), n subjects: 2
  Fibrinogen decreased (Grade 3 or 4), n subjects: 0
  Fibrinogen decreased, worst Grade 3, n subjects: 0
  Fibrinogen decreased, worst Grade 4, n subjects: 0
  Hemoglobin decreased (Grade 3 or 4), n subjects: 0
  Hemoglobin decreased, worst Grade 3, n subjects: 0
  Hemoglobin decreased, worst Grade 4, n subjects: 0
  Neutrophils decreased (Grade 3 or 4), n subjects: 1
  Neutrophils decreased, worst Grade 3, n subjects: 0
  Neutrophils decreased, worst Grade 4, n subjects: 1
  Phosphate decreased (Grade 3 or 4), n subjects: 1
  Phosphate decreased, worst Grade 3, n subjects: 1
  Phosphate decreased, worst Grade 4, n subjects: 0
  Prothrombin time/INR increased, worst Grade 3, n subjects: 0
  Prothrombin time/INR increased, worst Grade 4, n subjects: 0
  Prothrombin time/international normalized ratio increased (Grade 3 or 4), n subjects: 0
